Source: paper PMC3410962 (2012)

Target: prostate-specific membrane antigen (PSMA) (Homo sapiens, UniProt Q04609)
Assay: HPLC-based inhibition assay of purified PSMA with PABGγG substrate
Type: biochemical

Sequence of prostate-specific membrane antigen (PSMA) (Q04609 whole entry): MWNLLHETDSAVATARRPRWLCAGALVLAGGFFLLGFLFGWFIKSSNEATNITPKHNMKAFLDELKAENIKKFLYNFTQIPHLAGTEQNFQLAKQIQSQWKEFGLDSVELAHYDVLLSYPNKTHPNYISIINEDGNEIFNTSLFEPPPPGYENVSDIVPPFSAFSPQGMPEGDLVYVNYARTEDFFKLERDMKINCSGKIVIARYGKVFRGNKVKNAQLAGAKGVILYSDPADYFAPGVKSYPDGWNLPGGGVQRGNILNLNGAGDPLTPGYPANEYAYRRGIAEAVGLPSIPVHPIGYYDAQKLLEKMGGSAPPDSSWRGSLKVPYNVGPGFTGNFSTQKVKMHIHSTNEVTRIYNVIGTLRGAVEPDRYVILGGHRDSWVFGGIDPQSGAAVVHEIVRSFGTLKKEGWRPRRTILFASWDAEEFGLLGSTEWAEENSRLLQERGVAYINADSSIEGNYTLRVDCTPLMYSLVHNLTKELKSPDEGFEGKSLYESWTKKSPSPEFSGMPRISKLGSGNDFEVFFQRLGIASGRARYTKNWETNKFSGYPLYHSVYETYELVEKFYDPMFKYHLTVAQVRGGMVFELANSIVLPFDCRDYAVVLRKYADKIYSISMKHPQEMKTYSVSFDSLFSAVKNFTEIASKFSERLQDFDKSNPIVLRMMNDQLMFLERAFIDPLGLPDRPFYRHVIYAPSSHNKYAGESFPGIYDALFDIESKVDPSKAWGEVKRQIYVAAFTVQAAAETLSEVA

For biotin-PEG12-CTT-54, the IC50 was 10 nM.
